In patent US20230293629A1, “METHODS FOR ATTENUATING RELEASE OF INFLAMMATORY MEDIATORS AND PEPTIDES USEFUL THEREIN” (BIOMARCK PHARMACEUTICALS LTD., priority 2006, published 2023):
Where a SMILES comes first, the peptide text is derived from it. Where no end group is shown, it is not given here. The star is where a group is joined. Myristoyl = CCCCCCCCCCCCCC(=O)*

System: U937 cells
Experiment: PMA-stimulated lysozyme secretion by U937 cells
Format: cell-based, human
Settings: for % Inhibition Lysozyme: 50 μM test peptide, two hour incubation with 100 nM PMA, U937 cells
Summary of the method: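 U937 cells at 2.5×10^6 cells/ml in phenol red-free RPMI-1640 were preincubated 10 min at 37 °C with 50 μM test peptide, then stimulated 2 h with 100 nM PMA. Secreted lysozyme was measured by decrease in A450 of Micrococcus lysodeikticus suspension (pH 7.0) against an egg white lysozyme standard, expressed as percentage of PMA control.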

Ac-GAQFSKTAAK [Ac-GAQFSKTAAK]
% Inhibition Lysozyme: 41.2%

Ac-GAQFSKTAAKGEAAAERPGEAAVA
% Inhibition Lysozyme: 39.8%

CCCCCCCCCCCCCC(=O)NCC(=O)N[C@@H](C)C(=O)N[C@@H](CCC(N)=O)C(=O)N[C@@H](Cc1ccccc1)C(=O)N[C@@H](CO)C(=O)N[C@@H](CCCCN)C(=O)N[C@H](C(=O)N[C@@H](C)C(=O)N[C@@H](C)C(=O)N[C@@H](CCCCN)C(=O)NCC(=O)N[C@@H](CCC(=O)O)C(=O)N[C@@H](C)C(=O)N[C@@H](C)C(=O)N[C@@H](C)C(=O)N[C@@H](CCC(=O)O)C(=O)N[C@@H](CCCNC(=N)N)C(=O)N1CCC[C@H]1C(=O)NCC(=O)N[C@@H](CCC(=O)O)C(=O)N[C@@H](C)C(=O)N[C@@H](C)C(=O)N[C@H](C(=O)N[C@@H](C)C(=O)O)C(C)C)[C@@H](C)O [MANS] (Myristoyl-GAQFSKTAAKGEAAAERPGEAAVA-OH; C-terminus assumed)
reduction in lysozyme secretion relative to the PMA control reference (10 μM, 1 hour): about 20% | lysozyme secretion relative to control as 100% (10 μM, 1 hour, PMA control reference about 210%): about 170% | reduction in lysozyme secretion relative to the PMA control reference (10 μM, 2 hour): about 20% | lysozyme secretion relative to control as 100% (10 μM, 2 hour, PMA control reference about 240%): about 195% | % Inhibition Lysozyme: 40.8% | reduction in lysozyme secretion relative to the PMA control reference (50 μM, 1 hour): about 20% | lysozyme secretion relative to control as 100% (50 μM, 1 hour, PMA control reference about 210%): about 170% | reduction in lysozyme secretion relative to the PMA control reference (50 μM, 2 hour): about 25% | lysozyme secretion relative to control as 100% (50 μM, 2 hour, PMA control reference about 240%): about 185% | reduction in lysozyme secretion relative to the PMA control reference (100 μM, 1 hour): about 45% | lysozyme secretion relative to control as 100% (100 μM, 1 hour, PMA control reference about 210%): about 115% | reduction in lysozyme secretion relative to the PMA control reference (100 μM, 2 hour): about 40% | lysozyme secretion relative to control as 100% (100 μM, 2 hour, PMA control reference about 240%): about 140%

CCCCCCCCCCCCCC(=O)NCC(=O)N[C@H](C(=O)N[C@@H](C)C(=O)N1CCC[C@H]1C(=O)N[C@@H](C)C(=O)N[C@@H](C)C(=O)N[C@@H](CCC(=O)O)C(=O)NCC(=O)N[C@@H](C)C(=O)NCC(=O)N[C@@H](C)C(=O)N[C@@H](CCC(=O)O)C(=O)N[C@H](C(=O)N[C@@H](CCCCN)C(=O)N[C@@H](CCCNC(=N)N)C(=O)N[C@@H](C)C(=O)N[C@@H](CO)C(=O)N[C@@H](C)C(=O)N[C@@H](CCC(=O)O)C(=O)N[C@@H](C)C(=O)N[C@@H](CCCCN)C(=O)N[C@@H](CCC(N)=O)C(=O)N[C@@H](C)C(=O)N[C@@H](Cc1ccccc1)C(=O)O)C(C)C)[C@@H](C)O [RNS, reference compound] (Myristoyl-GTAPAAEGAGAEVKRASAEAKQAF-OH; C-terminus assumed)
% Inhibition Lysozyme: 0% | effect on PMA-enhanced lysozyme secretion (any of the time points or concentrations tested): did not affect
